Five substances from patent US7534762B2, “Polypeptides having antimicrobial activity and polynucleotides encoding same” (Novozymes A/S, priority 2005, dated 2009) can be followed below.

What all share (assay): Radial diffusion assay
What all share (type): cell-based

Experiment [1] concerns Enterococcus saccharolyticus (ATCC 43076). Particulars: 10 units = 1 mm diameter clear zone around the 3 mm sample well. On the procedure:
(§1) The supernatants described above in Example 4 were analyzed in a radial diffusion assay following a previously published protocol for detection of antimicrobial activity (Lehrer et al., (1991) Ultra sensitive assays for endogenous antimicrobial polypeptides J Immunol Methods 137: 167-173). Target bacteria (10^6 colony forming units (CFU)) were added to 10 ml of underlay agarose (1% low electro-endosmosis agarose, 0.03% Trypticase soy broth, 10 mM sodium phosphate, pH 7.4, 37 degrees Celsius). Suspension was solidified on an INTEGRID Petri Dish (Becton Dickinson Labware, NJ). A 3 mm Gel Puncher was used to make holes in the underlay agarose (Amersham Pharmacia Biotech, Sweden). Samples were added to the holes and incubated at 37 degrees Celsius, 3 hours. An overlay was poured on top and the plate was incubated overnight (LB media, 7.5% Agar). Antimicrobial activity was seen as bacterial clearing zones around the wells. Living cells was counterstained by adding 10 ml, 0.2 mM MTT (3-(4,5-Dimethylthiazol-2-yl)-2,5-diphenyltetrazolium bromide Thiazolyl blue). All standard protocols have been described elsewhere (Sambrook, Fritsch, and Maniatis, 1989). An electronic picture is taken. The bacterial growth inhibition is seen as clearing zones, which are measured to the nearest 0.1 mm and subtracted the diameter of the hole. The results are shown as zones of inhibition of native samples (Table 3) and concentrated samples (Table 4) against a range of test strains: • A: Staphylococcus simulans (ATCC 11631) • B: Staphylococcus carnosus (ATCC 51365) • C: Streptococcus hyointestinalis (ATCC 49169) • D: Bacillus subtilis (ATCC 23857) • E: Enterococcus saccharolyticus (ATCC 43076) • F: Escherichia coli (ATCC 10536) • G: Acinetobacter anitratus (ATCC 17903) • H: Erwinia chrysanthemi (ATCC 11663) • J: Pseudomonas boreopolis (ATCC 15452)
(§2) Concentration of samples was performed by precipitation of 45 ml culture supernatant with 2.5 ml 100% TCA and resuspension of the pelleted precipitate in 450 μl resuspension buffer (100 mM Tris pH 8, 100 mM NaCl).

Experiment [2] deals with Escherichia coli (ATCC 10536). Particulars: TCA precipitated culture supernatant, 100 x concentrated; 10 units = 1 mm diameter clear zone around the 3 mm sample well. On the procedure: as §1, §2
Experiment [3] concerns Pseudomonas boreopolis (ATCC 15452). Conditions: TCA precipitated culture supernatant, 100 x concentrated; 10 units = 1 mm diameter clear zone around the 3 mm sample well. The method, then:
as §1, §2

The test system of experiment [4] is Bacillus subtilis (ATCC 23857). Conditions: 10 units = 1 mm diameter clear zone around the 3 mm sample well. The method, then:
as §1, §2

The subject of experiment [5] is Streptococcus hyointestinalis (ATCC 49169). Particulars: 10 units = 1 mm diameter clear zone around the 3 mm sample well. On the procedure: as §1, §2
Experiment [6] relates to Acinetobacter anitratus (ATCC 17903). Conditions: TCA precipitated culture supernatant, 100 x concentrated; 10 units = 1 mm diameter clear zone around the 3 mm sample well. On the procedure: as §1, §2
Experiment [7] deals with Staphylococcus simulans (ATCC 11631). Conditions: TCA precipitated culture supernatant, 100 x concentrated; 10 units = 1 mm diameter clear zone around the 3 mm sample well. The method, then: as §1, §2
The test system of experiment [8] is Erwinia chrysanthemi (ATCC 11663). Particulars: TCA precipitated culture supernatant, 100 x concentrated; 10 units = 1 mm diameter clear zone around the 3 mm sample well. The method, then:
as §1, §2

The test system of experiment [9] is Staphylococcus carnosus (ATCC 51365). Conditions: 10 units = 1 mm diameter clear zone around the 3 mm sample well. On the procedure: as §1, §2
Where [10] appears, read: TCA precipitated culture supernatant, 100 x concentrated.
The mark [11] stands for this setting: native culture supernatant of recombinant A. oryzae clone.

As to “Marinasin 1B: Arenicola marina antimicrobial polypeptide, amino acids 1 to 49 of SEQ ID NO: 8, expressed in Aspergillus oryzae (MKFFLPIMIALAFAAVAMATADTEPVEPEEELSIMLPFVEDDLLEKPIP; listed as Arenicola marina)”, the “zone of inhibition, test strain E” value in experiment [1] (setting [10]) was found to be 30 units; in experiment [1] (setting [11]), 9 units. Also, the “zone of inhibition, test strain F” value in experiment [2] is on record as 25 units. In addition, the “zone of inhibition, test strain J” value in [3] was found to be 28 units. In addition, the “zone of inhibition, test strain D” value came to 28 units in experiment [4] (setting [10]) and 10 units in experiment [4] (setting [11]). In addition, the “zone of inhibition, test strain C” value in [5] (setting [10]) was found to be 22 units; in experiment [5] (setting [11]), 10 units. Moreover, the “zone of inhibition, test strain G” value in experiment [6] is 26 units. For the same substance, the “zone of inhibition, test strain A” value in experiment [7] is recorded as 22 units. Further, in [8], the “zone of inhibition, test strain H” value stood at 25 units. Further, the “zone of inhibition, test strain B” value in [9] (setting [10]) stood at 25 units; in experiment [9] (setting [11]), 21 units.

Take “Marinasin 2A: Arenicola marina antimicrobial polypeptide, amino acids 1 to 46 of SEQ ID NO: 12, expressed in Aspergillus oryzae (MNQITLLMLLVAVAVMATVTGQSLDDESDVENVSQPEQRGWCWQWT; listed as Arenicola marina)”: the “zone of inhibition, test strain E” value amounted to 41 units in experiment [1] (setting [10]) and 14 units in [1] (setting [11]). Moreover, the “zone of inhibition, test strain F” value in experiment [2] amounted to 25 units. Also, the “zone of inhibition, test strain J” value in [3] came to 39 units. Also, the “zone of inhibition, test strain D” value in [4] (setting [10]) is 38 units; in [4] (setting [11]), 16 units. Further, the figures for the “zone of inhibition, test strain C” value in experiment [5] (setting [10]) and in experiment [5] (setting [11]) were 35 units and 12 units, respectively. Further, the “zone of inhibition, test strain G” value in experiment [6] amounted to 39 units. The “zone of inhibition, test strain A” value in experiment [7] is listed as 34 units. Also, the “zone of inhibition, test strain H” value in experiment [8] was found to be 40 units. The “zone of inhibition, test strain B” value in [9] (setting [10]) is recorded as 35 units; in experiment [9] (setting [11]) it was 26 units.

As to “Marinasin 4: Arenicola marina antimicrobial polypeptide, amino acids 1 to 45 of SEQ ID NO: 22, expressed in Aspergillus oryzae (MKPIILLMLLVAVVVMATVTAEPLDEESDVEIVSQPEQRIPCWTP; listed as Arenicola marina)”, the “zone of inhibition, test strain E” value in [1] (setting [10]) is 68 units; in experiment [1] (setting [11]), 43 units. Also, the “zone of inhibition, test strain F” value in experiment [2] was 0 units. Besides, the “zone of inhibition, test strain J” value in [3] was determined as 0 units. In addition, the “zone of inhibition, test strain D” value in experiment [4] (setting [10]) and in experiment [4] (setting [11]) was 32 units in each case. For the same substance, the “zone of inhibition, test strain C” value in experiment [5] (setting [10]) amounted to 59 units; in experiment [5] (setting [11]) it was 54 units. The “zone of inhibition, test strain G” value in [6] is given as 6 units. Also, the “zone of inhibition, test strain A” value in experiment [7] came out at 14 units. Moreover, in experiment [8], the “zone of inhibition, test strain H” value was found to be 0 units. Further, the “zone of inhibition, test strain B” value in experiment [9] (setting [10]) was 81 units; in [9] (setting [11]) it was 60 units.

Take “Marinasin 5: Arenicola marina antimicrobial polypeptide, amino acids 1 to 49 of SEQ ID NO: 24, expressed in Aspergillus oryzae (MKFLLPLMVVMAFAAVAMATADTEPVEREEGVFIMLPFVEDDMLEKPIL; listed as Arenicola marina)”: in experiment [1] (setting [10]), the “zone of inhibition, test strain E” value was 23 units. Moreover, the “zone of inhibition, test strain F” value in experiment [2] stood at 19 units. For the same substance, the “zone of inhibition, test strain J” value in experiment [3] came to 22 units. Moreover, in experiment [4] (setting [10]), the “zone of inhibition, test strain D” value is 25 units. Moreover, in experiment [5] (setting [10]), the “zone of inhibition, test strain C” value is listed as 24 units. The “zone of inhibition, test strain G” value in [6] came to 26 units. Moreover, the “zone of inhibition, test strain A” value in experiment [7] amounted to 22 units. Also, in [8], the “zone of inhibition, test strain H” value is listed as 26 units. Further, the “zone of inhibition, test strain B” value in experiment [9] (setting [10]) is given as 13 units.

As to “Marinasin 6: Arenicola marina antimicrobial polypeptide, amino acids 1 to 44 of SEQ ID NO: 26, expressed in Aspergillus oryzae (MTTLLLMFGVAIVVLATVAAVPLQDDDVLDPSGLVEGETRGRSC; listed as Arenicola marina)”, in experiment [1] (setting [11]), the “zone of inhibition, test strain E” value came out at 40 units. For the same substance, in experiment [4] (setting [11]), the “zone of inhibition, test strain D” value is recorded as 39 units. Also, the “zone of inhibition, test strain C” value in [5] (setting [11]) is 45 units.
